# Experimental data published in patent US20100298214A1, “TREATMENT OF AUTOIMMUNE DISEASE” (MASSACHUSETTS INSTITUTE OF TECHNOLOGY, priority 2007, published 2010).
# Tests used:
# [1] = test system: NOD mice; conditions: cited from earlier work
# [2] = test system: sublethally irradiated male NOD mice; conditions: Aboumrad et al., 2007; cited from earlier work
# [3] = test system: prediabetic NOD mice
# Method: (§1) NOD mice were obtained from Taconic Farms. Female NOD mice were used in all the studies and monitored for diabetes by checking urine glucose levels at least two times per week, starting around 12 weeks of age. Mice were considered diabetic when urinary glucose level reached 500 mg/dl, as measured with Diastix (Bayer Diagnostics). […] BALB/c mice were purchased from Jackson Laboratory. EA16NOD mice were obtained from Drs. Diane Mathis and Christopher Benoist. Cxcr4^fif Lck-Cre mice and littermate Cxcr4^−if Lck-Cre were on the mixed 129/C57BL/6 background and were generated by breeding Cxcr4^+if Lck-Cre mice. All mice were kept under specific pathogen free facilities. For AMD3100 treatment, prediabetic NOD mice were given AMD3100 (5 mg/kg) subcutaneously daily for the indicated lengths of time. For analysis of T cell distribution, mice were sacrificed at 2 hours after the last AMD3100 injection.
# Single-cell suspensions were prepared from the spleen, lymph nodes (e.g., superficial cervical, brachial, axillary, inguinal, mesenteric, and pancreas-draining lymph nodes), and bone marrow (e.g., obtained by flushing two femurs and two tibias with cold RPMI 1640 medium containing 5% fetal calf serum [FCS]). All staining antibodies were purchased from BDbioscience, except anti-Foxp3, lineage markers (Lin), and c-Kit and Sea-1, which were from E-bioscience, Stem Cell Technologies, and Biolegend, respectively. Cells were stained in the presence of 2.5 μg/ml anti-FcR antibody in PBS containing 0.1% BSA and 0.1% NaN3 and analyzed on a FACScaliber or a LSR II or a FACSAria, collecting 10,000 to 1,000,000 live cells per sample. Analyses were carried out with Flowjo software. For analysis of LSK cells, 10% of total cells with low level of lineage marker expression were gated for further analysis of Sca-1 versus c-Kit expression profiles. Intracellular staining of Foxp3 and Ki67 was performed according to the manufacturer's instruction.
# AMD3100 is a small molecule antagonist of CXCR4 (De Clercq, 2003, supra; incorporated herein by reference). […] Thus, prediabetic NOD mice were given AMD3100 (5 mg/kg) daily for 8 days, and the distribution and phenotype of T cells in their bone marrow were assayed.
# [4] = test system: prediabetic NOD mice; conditions: daily for 8 days (FIGS. 8A and 8B)
# Method: as §1
# [5] = test system: NOD mice; assay: Diabetes incidence monitored by urine glucose level; format: in vivo, mouse
# Text: NOD mice were obtained from Taconic Farms. […] BALB/c mice were purchased from Jackson Laboratory. EA16NOD mice were obtained from Drs. Diane Mathis and Christopher Benoist. […] All mice were kept under specific pathogen free facilities.
# To test whether continuous AMD3100 treatment can inhibit the development of diabetes, prediabetic NOD mice (15 weeks of age) were given AMD3100 daily for 14 weeks. PBS-treated NOD mice started to show evidence of diabetes at 16 weeks of age, and by 29 weeks of age, all mice developed diabetes (FIG. 8D).
# [6] = target: T1, CXCR4 (Homo sapiens, UniProt P61073); conditions: induction of internalization after binding; Liu et al., 2004; cited from earlier work
# T1 construct: endogenous in cells; host or cells: human peripheral mononuclear cells (PBMCs)
# T1 sequence (P61073 whole entry): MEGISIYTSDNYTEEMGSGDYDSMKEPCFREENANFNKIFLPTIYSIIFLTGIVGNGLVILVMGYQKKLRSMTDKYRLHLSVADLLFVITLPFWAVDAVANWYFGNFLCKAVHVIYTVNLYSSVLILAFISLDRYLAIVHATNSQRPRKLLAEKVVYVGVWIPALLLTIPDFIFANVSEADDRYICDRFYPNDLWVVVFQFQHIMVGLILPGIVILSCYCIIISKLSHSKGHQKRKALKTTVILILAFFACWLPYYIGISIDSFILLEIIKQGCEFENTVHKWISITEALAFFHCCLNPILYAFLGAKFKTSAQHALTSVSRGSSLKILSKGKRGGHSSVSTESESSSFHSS
# [7] = treatment for 8 days (FIG. 10G)
# [8] = treatment for 8 days (FIG. 10H)
molecule,measurement,setting,value
"CXCL12: chemokine (C-X-C motif) ligand 12, administered systemically (Yano et al., 2007)",diabetes on systemic administration,"[1]; Yano et al., 2007",ameliorates
"Cl.Cl.Cl.Cl.Cl.Cl.Cl.Cl.O.O.c1cc(CN2CCCNCCNCCCNCC2)ccc1CN1CCCNCCNCCCNCC1 [AMD3100, 1,1′-[1,4-phenylenebis(methylene)]-bis-1,4,8,11-tetraazacyclotetradecane octahydrochloride dihydrate]",diabetes development in the transfer model,[2],promotes
same,proportion of CD4 T cells with the naïve phenotype (CD45RB^hi CD44^lo) in bone marrow,[3]; 5 mg/kg daily for 8 days (FIG. 5B),preferentially reduced
same,proportion of both CD4 and CD8 T cells in the bone marrow,"[3]; 5 mg/kg daily for 8 days, compared to PBS (FIG. 5A)",significantly reduced
same,percentage of HSC in the bone marrow,"[3]; 8 days, compared to PBS-treated NOD mice, p=0.06 (FIG. 10D)",reduced
same,percentage of T cells that proliferated in the spleen and pancreas-draining lymph nodes,[3]; AMD3100 treatment of NOD mice,did not significantly affect
same,"distribution of NKT cells, dendritic cells, or B cells",[3]; NOD mice following AMD3100 treatment (FIG. 6),nor any change
same,percentages (mean±SE) of CD45RB^hi CD44^lo naïve T cells among TCR+CD4+ cells,"[3]; bone marrow, prediabetic NOD mice 15-16 weeks of age, daily for 8 days, n=4, p<0.01 vs PBS",24.8±3.2%
same,NKT cell distribution in various organs,"[3]; prediabetic NOD mice, 8 days (FIG. 6)",does not affect
same,number of HSCs (Lin-Sca1+c-Kit+) in the bone marrow,[3]; treatment for 8 days (FIG. 7C),significantly reduced
same,percentage of Foxp3+CD4+ Treg cells in the bone marrow,[3]; [7],increased
same,percentages of Tregs in the pancreas-draining lymph node (PDLN),[3]; [7],increased significantly
same,percentages of Tregs in the spleen,[3]; [7],increased significantly
same,number of Tregs in the spleen,[3]; [8],increased significantly
same,total number of Tregs in the bone marrow,[3]; [8],decreased
same,lymphocyte infiltration into the islets (insulitis),[4]; prediabetic NOD mice 15 weeks of age,significantly reduced
same,peri-insulitis,[4]; prediabetic NOD mice,without affecting
same,time after termination of treatment at which mice began to develop diabetes,[5]; after three weeks of daily treatment,two weeks
same,diabetes incidence after termination of treatment,"[5]; by 26 weeks of age, three weeks of daily treatment, same level as PBS-treated mice",70%
same,mice that developed diabetes during continuous treatment,"[5]; daily for 14 weeks from 15 weeks of age, up to 29 weeks of age (FIG. 8D)",none
same,mice that developed diabetes during treatment,"[5]; daily for three weeks from 15-16 weeks of age, period between 17 and 20 weeks of age (FIG. 8C)",none
"G-CSF: granulocyte colony-stimulating factor, a known suppressor of CXCL12 expression",insulitis and diabetes,"[1]; NOD mice, literature",reduced
same,onset of type I diabetes,"[1]; NOD mice, literature",significantly delays
O=C1c2c(O)cc(O)cc2O[C@H](c2cc(O)c(O)c(O)c2)[C@H]1O [ampelopsin],CXCR4 on the surface of human peripheral mononuclear cells (PBMCs),[6],decrease
